Data taken from patent publication US20230014352A1, “INHALED STATINS AS BRONCHODILATORS TO IMPROVE LUNG FUNCTION IN RESPIRATORY DISEASES” (priority 2019, published 2023).
Entries after “also recorded” stand apart in the source; their conditions may differ.

Assays:
mouse PCLS = experiment: Viability of mouse PCLS (lung tissue toxicity); details: FIG. 10F
airways of C57BL/6 mice = experiment: Non-inflammatory methacholine (MCh)-induced hypercontractile mouse model, airway % contraction in precision-cut lung slices; format: in vivo; details: intratracheal 5 mg/kg for 5 days, 1 hr prior to each MCh nebulization
Procedure: In this model, mice were administered nebulized methacholine (MCh) during postnatal maturation of ASM, which causes a hypercontractile phenotype without any induction of inflammatory responses.
All mouse experiments were approved by the Institutional Animal Care and Use Committee at Brigham & Women's Hospital, Harvard Medical School. The methacholine-induced hypercontractile mouse model has been described in K. R. Patel et al., FASEB J (2017) 31(10):4335-46. Briefly, mice (C57BL/6) were exposed to nebulized MCh (30 mg/mL) for 10 min daily between P15 and −20 (5 days). Control mice were administered nebulized normal saline. This establishes the MCh hyper-contractility asthma phenotype, a non-inflammatory model of asthmatic airway hyperresponsiveness AHR. Mice were administered intratracheal (i.t.) pitavastatin (5 mg/kg for five days) or vehicle control for 1 hour before each MCh nebulization. For airway % contraction assays, mouse precision-cut lung slices (PCLS) were stimulated to contract by increasing MCh concentrations (0.1-100 μM). For each measurement, at least n=4 mice were used from 2 independent experiments, and a total of 20-30 airways per lung.

[1] = system: myosin light chain-2 (MLC-2) phosphorylation; experiment: Thrombin-induced MLC-2 phosphorylation, western blot; format: cell-based, human; details: 1 or 10 μM, 24 hrs; thrombin 2 U, 30 min; FIG. 5B
Procedure: (§1) Antibodies for western blot analysis against total and phospho-MLC2 were obtained from Santa Cruz Biotechnology and Cell Signaling Technology, respectively. Antibodies for pROCK1, total ROCK1, and GAPDH were obtained from Abcam. Pitavastatin was obtained from Santa Cruz Biotechnology.
Human ASM cells were treated with pitavastatin (1 or 10 μM) for 24 hours, then treated with thrombin (2 U, 30 min). As depicted in FIG. 5B, pitavastatin (1 or 10 μM) inhibited thrombin-induced MLC2 phosphorylation.

MLC-2 = MLC-2 (total and phosphorylated) expression, western blot; format: cell-based, human; details: 1 μM, 24 hours
Procedure: as §1
(§2) Non-asthmatic primary human ASM cells were treated with either vehicle or pitavastatin (1 μM) for 24 hours. Cells were then immuno-stained for F-actin expression. […] Cell lysates were analyzed by western blot for total ROCK-1, total ROCK-2, total MLC-2, and phosphorylated MLC-2. As shown in FIGS. 15C and 15D, pitavastatin reduced the total expression of ROCK-1, ROCK-2, and MLC-2 (total and phosphorylated).

ROCK-2 = experiment: Total ROCK-2 expression, western blot; format: cell-based, human; details: 1 μM, 24 hrs, FIG. 15C
Procedure: as §2

## O=C(O)C[C@H](O)C[C@H](O)/C=C/c1c(C2CC2)nc2ccccc2c1-c1ccc(F)cc1 [pitavastatin]
Mouse PCLS
  lung tissue toxicity: did not demonstrate any
Airways of C57BL/6 mice; FIG. 11B
  % airway contraction: 14.2%
Airways of C57BL/6 mice; PCLS response to 500 nM MCh, FIG. 6
  % contraction of airways: 7.3%
[1]
  thrombin-induced MLC2 phosphorylation: inhibits; also recorded: reduced MLC-2 phosphorylation
MLC-2
  expression of MLC-2 (total and phosphorylated): reduced
ROCK-2
  total (basal) expression of ROCK-2: reduced
